Structures can show the parent of a compound that is named as a salt.
System: human platelet aggregation induced by ADP
Experiment: Inhibition of human platelet aggregation induced by ADP
Assay type: cell-based
Details: test compound 1.0 × 10^-7 M; human platelet rich plasma; ADP 2.5 μM final; 37° C.; mean ± S.E.
Method: Inhibition of human platelet aggregation induced by ADP
The citrate blood was centrifuged at 150 ×g for 10 minutes and the platelet rich plasma (PRP) was removed. The remaining blood was centrifuged for a further 10 minutes at 1500 ×g to prepare the platelet poor plasma (PPP), which was used as a reference for platelet aggregation. […] 25 μl of sample solution and 225 μl of PRP were mixed and stirred at 1000 rpm for 2 minutes at 37° C. Aggregation was induced by ADP solution at the final concentration of 2.5 μM.

Structure (SMILES): O=C(O)COc1cccc(CC2CCCCC=C2c2nc(-c3ccccc3)c(-c3ccccc3)o2)c1 (centres unmarked) [Test Compound (1), Sodium [3-[[2-(4,5-diphenyloxazol-2-yl)-2-cyclohepten-1-yl]methyl]phenoxy]acetate]
- inhibition at 0.1 µM: 88 ± 0.5%

Structure (SMILES): O=C(O)COc1cccc2c1CCC[C@H]2N1CCC[C@@H]1c1nc(-c2ccccc2)c(-c2ccccc2)o1 [Test Compound (2), Sodium salt of (1R)-1-((2R)-2-(4,5-diphenyloxazol-2-yl)pyrrolidin-1-yl]-5-carboxymethoxy-1,2,3,4-tetrahydronaphthalene]
- inhibition at 0.1 µM: 85 ± 7.6%

Reference: patent US6300344A, “Heterocyclic compounds” (Fujisawa Pharmaceutical Co., Ltd., priority 1995, dated 2001)
